These results are taken from US12329738B2, “Urolithin A and a composition containing same for external use in inflammations of various etiologies” (WARSZAWSKI UNIWERSYTET MEDYCZNY, priority 2018, dated 2025).

The subject of test [1] is NHDF fibroblasts (human normal skin fibroblasts). The following applies: comparative studies by the inventors. The procedure: NHDF fibroblasts (human normal skin fibroblasts) were cultured in the DMEM medium supplemented with 10% FBS and a mixture of antibiotics—penicillin and streptomycin at 37° C., 5% CO2. […] After incubation with the compounds, the cells were washed twice with warm medium. The effect on cell viability was assessed using a standard MTT test.

Test [2] relates to TNF-alpha. Briefly: TNF-alpha production by THP-1 derived macrophages (ELISA). The following applies: 40 μM; LPS stimulation; FIG. 13. The class given is cell-based, human. The procedure:
(§1) Monocytes of the THP-1 line were cultured in RPMI 1640 medium supplemented with 10% FBS and 2 mM glutamine. For transformation of monocytes into macrophages, the cells were treated with 12.5 ng/mL PMA (phorbol 12-myristate 13-acetate) for 48 hours, then washed and incubated for 24 hours in a culture medium without PMA. After this time, urolithin A, urolithin B, iso-urolithin A and the corresponding glucuronides (GUA, GUB and GiUA) were added to the cells at a concentration of 40 μM. After 1 hour of incubation with the compounds, the cells were stimulated with LPS from Escherichia coli (10 ng/mL).
(§2) To assess the level of TNF-alpha production, the cells were incubated for 6 hours, to assess the expression of mRNA for TNF-alpha, the cells were incubated for 24 hours, to assess the effect on ERK1/2 phosphorylation, the cells were incubated for 35 minutes.
(§3) The level of TNF-alpha in the culture medium was determined using the immunochemical ELISA method (BD biosciences). Evaluation of the expression of mRNA for TNF-alpha was performed using real time PCR. After 24 hours of incubation, RNA was isolated using NucleoSpin RNA Clean-up (Macherey-Nagel). The amount and quality of isolated RNA was determined using 2100 Bioanalyzer (Agilent Technologies). The expression level of mRNA for TNF-α was determined using Brilliant II SYBR Green QPCR Kit and Aria Mx Real-Time PCR thermocycler (Agilent Technologies). The following were used as primers for TNF-alpha: forward: 5′-[…]-3′, reverse: 5′-[…]-3′. Beta-actin (ACTB) was used as the housekeeping gene; primer forward: 5′-[…]-3′, reverse: 5′-[…]-3′).
(§4) The obtained results of experiments on in vitro models were analyzed using the Statistica 13 program (StatSoft, Inc., Tulsa, OK, USA) and presented as mean values±SEM. Statistical significance was set at P≤0.05. The results with established normal distribution in the D'Agostin and Pearson test were prepared using analysis of variance (ANOVA). Parametric post-hoc analysis was performed using Dunnett's test.
In general terms: ELISA stands for enzyme-linked immunosorbent assay.

The next test deals with T1, tyrosinase (Mus musculus, UniProt P11344).
T1 sequence (P11344 19-533): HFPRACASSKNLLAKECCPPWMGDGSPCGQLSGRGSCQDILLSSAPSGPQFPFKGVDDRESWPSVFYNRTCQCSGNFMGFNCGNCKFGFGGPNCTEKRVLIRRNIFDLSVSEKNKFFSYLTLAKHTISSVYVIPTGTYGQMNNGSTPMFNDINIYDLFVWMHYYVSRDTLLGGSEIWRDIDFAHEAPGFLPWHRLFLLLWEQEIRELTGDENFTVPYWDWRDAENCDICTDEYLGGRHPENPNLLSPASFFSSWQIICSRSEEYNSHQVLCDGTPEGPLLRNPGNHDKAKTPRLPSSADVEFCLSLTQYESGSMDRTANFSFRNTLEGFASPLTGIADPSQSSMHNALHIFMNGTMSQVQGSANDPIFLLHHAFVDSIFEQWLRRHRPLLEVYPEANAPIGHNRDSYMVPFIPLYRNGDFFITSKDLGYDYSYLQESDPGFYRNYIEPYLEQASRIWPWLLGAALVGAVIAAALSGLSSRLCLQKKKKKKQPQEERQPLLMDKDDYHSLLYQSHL
The following applies: B16 melanoma cells; cited from earlier work.

In test [3] the test system is TNF-alpha. Briefly: TNF-alpha production by macrophages from human peripheral blood monocytes (ELISA). The class given is cell-based. Particulars: 40 μM; LPS 100 ng/mL, 24 h; FIG. 16.
Method: Monocytes were isolated from peripheral human blood by a standard method using dextran sedimentation and Ficoll Hypaque gradient centrifugation. After isolation, monocytes were suspended in RPMI 1640 medium supplemented with L-glutamine, HEPES, streptomycin, amphotericin and gentamicin, and 20% autologous serum. Cell culture was carried out under these conditions for 7 days. […] After 24h, TNF-alpha level in the medium was determined using the immunochemical ELISA method (BD biosciences). The obtained results of experiments on in vitro models were analyzed using the Statistica 13 program (StatSoft, Inc., Tulsa, OK, USA) and presented as mean values±SEM. Statistical significance was set at P≤0.05. The results with established normal distribution in the D'Agostin and Pearson test were prepared using analysis of variance (ANOVA). Parametric post-hoc analysis was performed using Dunnett's test.
Another test relates to ERK1/2. As to the kind of experiment: ERK1/2 phosphorylation in THP-1 derived macrophages (Western blotting). It is filed as cell-based, human. Particulars: 40 μM; LPS 10 ng/mL, 35 min; FIG. 15. The procedure:
Monocytes of the THP-1 line were cultured in RPMI 1640 medium supplemented with 10% FBS and 2 mM glutamine. For transformation of monocytes into macrophages, the cells were treated with 12.5 ng/mL PMA (phorbol 12-myristate 13-acetate) for 48 hours, then washed and incubated for 24 hours in a culture medium without PMA. After this time, urolithin A, urolithin B, iso-urolithin A and the corresponding glucuronides (GUA, GUB and GiUA) were added to the cells at a concentration of 40 μM. After 1 hour of incubation with the compounds, the cells were stimulated with LPS from Escherichia coli (10 ng/mL). To assess the level of TNF-alpha production, the cells were incubated for 6 hours, to assess the expression of mRNA for TNF-alpha, the cells were incubated for 24 hours, to assess the effect on ERK1/2 phosphorylation, the cells were incubated for 35 minutes. […] The obtained results of experiments on in vitro models were analyzed using the Statistica 13 program (StatSoft, Inc., Tulsa, OK, USA) and presented as mean values±SEM. Statistical significance was set at P≤0.05. The results with established normal distribution in the D'Agostin and Pearson test were prepared using analysis of variance (ANOVA). Parametric post-hoc analysis was performed using Dunnett's test.
On the technique in general: Immunoblotting shows a protein as a band on a membrane.

The test system of a further test is mRNA for TNF-alpha. As to the kind of experiment: TNF-alpha mRNA expression in THP-1 derived macrophages (real time PCR). The class given is cell-based, human. Particulars: 40 μM; LPS stimulation; FIG. 14. The procedure: as §1, §2, §3, §4
For orientation: Quantitative PCR measures a nucleic acid by following its amplification.

Regarding `CC(=O)Oc1ccc2c(c1)oc(=O)c1cc(O)ccc12` [3-acetyl-urolithin A], the “Antiproliferative activity on human skin fibroblast cells” value in test [1] is recorded as “neither urolithin A, nor 8-acetyl-urolithin A, nor 3-acetyl-urolithin A showed antiproliferative activity”.
As to `CC(=O)Oc1ccc2c(c1)c(=O)oc1cc(O)ccc12` [8-acetyl-urolithin A], the “Antiproliferative activity on human skin fibroblast cells” value in test [1] is recorded as “neither urolithin A, nor 8-acetyl-urolithin A, nor 3-acetyl-urolithin A showed antiproliferative activity”.
Turning to `O=c1oc2cc(O)ccc2c2ccccc12` [urolithin B], the “TNF-alpha production by THP-1 derived macrophages” value with TNF-alpha [2] is given as “did not show any activity”. For the same molecule, on tyrosinase, the “Tyrosinase activity (depigmentation)” value is reported as “suppressing tyrosinase activity”. In addition, the “Inhibition of TNF-alpha production by macrophages from human peripheral blood monocytes” value in the test with TNF-alpha [3] was “inactive”. Moreover, the “ERK1/2 kinase phosphorylation in THP-1 derived macrophages” value in the test with ERK1/2 is listed as “did not exhibit such activity”. Further, the “TNF-alpha mRNA expression in THP-1 derived macrophages” value in the test on mRNA for TNF-alpha is “inactive”.
